The source of these data is paper PMC7816042, “Insights into the Structure-Activity Relationship of Glycosides as Positive Allosteric Modulators Acting on P2X7 Receptors” (Molecular Pharmacology, 2021).

pEC50: −log10 of the molar value.

Series [1] concerns the target T1, human P2X7 (Homo sapiens, UniProt Q99572).
T1 construct: expressed in transfected cells
T1 sequence (Q99572 1-595): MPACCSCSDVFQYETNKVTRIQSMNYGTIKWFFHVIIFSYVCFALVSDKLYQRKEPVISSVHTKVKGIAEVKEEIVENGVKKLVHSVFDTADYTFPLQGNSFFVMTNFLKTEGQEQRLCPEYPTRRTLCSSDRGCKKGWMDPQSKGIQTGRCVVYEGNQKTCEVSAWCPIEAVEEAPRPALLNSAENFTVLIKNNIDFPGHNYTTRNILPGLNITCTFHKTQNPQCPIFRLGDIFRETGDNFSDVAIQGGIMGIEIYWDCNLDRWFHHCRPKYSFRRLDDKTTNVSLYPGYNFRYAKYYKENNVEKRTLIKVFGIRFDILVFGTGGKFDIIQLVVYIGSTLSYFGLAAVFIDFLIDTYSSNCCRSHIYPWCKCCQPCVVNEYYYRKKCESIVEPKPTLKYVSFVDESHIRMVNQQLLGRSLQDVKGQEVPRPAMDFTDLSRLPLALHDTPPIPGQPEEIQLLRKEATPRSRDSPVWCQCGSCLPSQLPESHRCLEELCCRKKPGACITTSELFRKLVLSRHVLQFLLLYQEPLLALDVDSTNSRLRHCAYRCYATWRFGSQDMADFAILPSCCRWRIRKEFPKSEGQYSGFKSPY
As to the kind of experiment: YO-PRO-1 dye uptake assay in HEK-hP2X7 cells. The format is cell-based. The following applies: for Effect of AZ10606120 pretreatment on response to ATP + glycoside (P2X7 dependence): 10 µM AZ10606120 pretreatment; for PAM effect on ATP dose-response curve: result in words. As for the experimental part:
ATP-induced dye uptake experiments were performed as described previously ([Bidula et al., 2019b]). Briefly, HEK-hP2X7 cells were plated at 2 × 10^4 cells per well (100 μl per well) in complete medium and left overnight to attach to poly-D-lysine–coated 96-well plates. YO-PRO-1 iodide was prepared in a low divalent buffered solution ([…], 2 mM KCl, 13 mM D-glucose, 10 mM HEPES, 0.2 mM CaCl2 pH 7.3) to a final concentration of 2 μM. Medium was removed from the plate using a manual multichannel pipette and YO-PRO-1 containing buffer applied to wells (180 μl per well). […] A Flexstation 3 plate reader (Molecular Devices, Sunnyvale, CA) was used to record YO-PRO-1 fluorescence in HEK-hP2X7 for 300 seconds after the addition of ATP (at 10× final concentration) with/without ginsenoside compounds or vehicle (DMSO). Plates were allowed to warm up to 37°C for 10 minutes before initiating the recording. Baseline recordings were made for 40 seconds before compound addition using the Flexstation 3 fluidics system. YO-PRO-1 fluorescence was measured at 520 nm after excitation at 490 nm (auto cutoff at 495 nm), and the sample interval was 3.5 seconds. Flexstation settings were photomultiplier tube (PMT) medium, six reads per well, pipette height 170, and a rate of injection of 3. Data were acquired using Softmax Pro version 5.4 (Molecular Devices). To analyze the data, area under the dye uptake curve was calculated in Softmax Pro version 5 using zero baseline data with a lag time of 50 seconds (50–300 seconds).
(§1) Results are expressed as means ± S.D. from the indicated number of experiments. For YO-PRO-1 dye uptake and intracellular calcium experiments, each independent experiment used triplicate wells, and the means of the replicates were collated and plotted. Technical replicates were used to ensure reliability of fluorescence values. […] Dose-response curves were plotted by a nonlinear regression fit with variable slope using GraphPad Prism software version 7. Half-maximal responses are expressed as EC50 values with 95% confidence intervals. These values were calculated from the collated data for each compound from three independent experiments. Statistical differences were determined by analysis of the data by one-way ANOVA followed by Dunnett’s multiple comparison test or Sidak’s multiple comparison test using GraphPad Prism version 7. P < 0.05 was the accepted minimum level of significance.

Series [2] concerns nontransfected HEK-293 cells. Nature of the series: YO-PRO-1 dye uptake in parental nontransfected HEK-293 cells. The format is cell-based, human. The conditions noted are these: drug alone.
Series [3] has as its target T1, human P2X7. The arrangement: method as in Helliwell et al., 2015. The following applies: ref Helliwell et al., 2015; cited from earlier work.
The test system of series [4] is HEK-hP2X7 cells. As to the kind of experiment: Cell viability assay (resazurin/Alamar blue) in HEK-hP2X7 cells. In kind it is cell-based, human. The conditions noted are these: 24 hours. The method, then:
(§2) HEK-hP2X7 or THP-1 cells were seeded at 5 × 10^3 cells per well in a volume of 100 μl for 24 hours in 96-well plates (Nunclon Edge plates, catalog number 167425; Thermo Scientific). Cells were plated in DMEM:F12 medium or RPMI 1640 medium containing 1% FBS and penicillin/streptomycin for 24 hours in a humidified incubator at 37°C with a constant supply of 5% CO2. Edge wells of the plates were filled with autoclaved distilled water to prevent evaporation of media from wells containing cells. The compounds and ATP were made at 2× final concentration in 1% FBS DMEM:F12 and 100 μl added to the cells for 24 hours. After incubation, resazurin sodium salt (CAS 62758-13-8; Sigma Aldrich) at 0.1 mg/ml in sterile PBS was added to the plate (20 into 200 µl culture medium per well). Cells were incubated for a further 2 hours in a humidified incubator at 37°C with a supply of 5% CO2. A Flexstation 3 microplate reader was used to acquire data. Endpoint fluorescence data were measured using 570 nm excitation wavelength, 600 nm emission wavelength (cutoff at 590 nm), and three reads per well (PMT low). Data were analyzed by performing background correction through subtracting blank medium readings (without cells) from all samples and then normalizing each sample to medium treated cells (control treatment, 100%) as percentage of control.
(§3) Results are expressed as means ± S.D. from the indicated number of experiments. For YO-PRO-1 dye uptake and intracellular calcium experiments, each independent experiment used triplicate wells, and the means of the replicates were collated and plotted. Technical replicates were used to ensure reliability of fluorescence values. Cell viability data were normalized to the vehicle control for each experiment after background correction had been performed. Dose-response curves were plotted by a nonlinear regression fit with variable slope using GraphPad Prism software version 7. Half-maximal responses are expressed as EC50 values with 95% confidence intervals. These values were calculated from the collated data for each compound from three independent experiments. Statistical differences were determined by analysis of the data by one-way ANOVA followed by Dunnett’s multiple comparison test or Sidak’s multiple comparison test using GraphPad Prism version 7. P < 0.05 was the accepted minimum level of significance.
(In general: The colour change of resazurin is a common sign of viable cells or microbes.)

Series [5] concerns THP-1 cells. Nature of the series: Cell viability assay (resazurin/Alamar blue) in THP-1 cells. The format is cell-based, human. The following applies: 500 µM ATP. As for the experimental part: as §2
as §3, with “Dose-response curves were plotted by a nonlinear regression fit with variable slope using GraphPad Prism software version 7. Half-maximal responses are expressed as EC50 values with 95% confidence intervals.” left out, “P < 0.05 was the accepted minimum level of significance.” left out

In series [6] the target is T2, endogenous P2X7 in THP-1 cells (Homo sapiens, UniProt Q99572).
T2 sequence (Q99572 1-394 limits assumed): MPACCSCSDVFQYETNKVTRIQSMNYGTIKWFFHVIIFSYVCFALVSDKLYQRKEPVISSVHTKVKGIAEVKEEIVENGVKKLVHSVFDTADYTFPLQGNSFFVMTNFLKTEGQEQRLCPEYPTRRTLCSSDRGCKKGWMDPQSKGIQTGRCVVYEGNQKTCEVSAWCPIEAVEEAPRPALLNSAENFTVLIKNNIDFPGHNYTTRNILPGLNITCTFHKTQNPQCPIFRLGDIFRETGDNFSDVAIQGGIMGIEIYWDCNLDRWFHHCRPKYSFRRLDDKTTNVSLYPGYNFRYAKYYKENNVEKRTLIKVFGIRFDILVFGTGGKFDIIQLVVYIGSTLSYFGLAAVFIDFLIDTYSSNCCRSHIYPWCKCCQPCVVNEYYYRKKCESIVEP
Nature of the series: Fura-2 calcium measurements in THP-1 monocytes. In kind it is cell-based. The conditions noted are these: 500 µM ATP co-applied with 10 µM glycoside. The method, then: THP-1 cells were pelleted by centrifugation (300g, 5 minute), washed, and resuspended in Hanks’ balanced salt solution buffer containing 2 μM fura-2 AM (HelloBio) and 250 μM (±)-sulfinpyrazone. Cells were loaded for 1 hour in a waterbath at 37°C while shielded from light with foil. Loaded cells were washed once with 5 ml Hanks’ balanced salt solution to remove excess fura-2 AM dye. THP-1 cells were then resuspended, counted, and plated at 2 × 10^5 cells per well in a standard clear 96-well plate (NUNC 167008; Thermo Scientific) in low divalent assay buffer without Mg^2+ (145 mM NaCl, 2 mM KCl and 2 mM CaCl2, 13 mM glucose, 10 mM HEPES, pH 7.3) containing 250 μM (±)-sulfinpyrazone. The 10× concentration of agonist (ATP) was prepared in the same assay buffer. ATP was injected automatically into wells at 30 seconds in a Flexstation 3 microplate reader. Ratiometric data were acquired using 340 and 380 nm for excitation wavelengths, 520 nm as the emission wavelength, and six reads per well (PMT medium). Area under the curve was calculated using standard zero baseline normalization with a lag time 0–300 seconds using SoftMax Pro version 5.4 software.
as §1

Take `C[C@H]1O[C@@H](O[C@H]2CC[C@@]3(C)[C@@H](CC[C@]4(C)[C@@H]3C=C[C@]35OC[C@@]6(CCC(C)(C)C[C@H]63)[C@@H](O)C[C@]54C)[C@]2(C)CO)[C@H](O)[C@@H](O[C@@H]2O[C@H](CO)[C@@H](O)[C@H](O)[C@H]2O)[C@H]1O` [Saikosaponin A, saikosaponin A]: the “Effect of AZ10606120 pretreatment on response to ATP + glycoside (P2X7 dependence)” value in series [1] is on record as “unaffected by AZ10606120 pretreatment”. Moreover, in series [1] (200 µM ATP, 10 µM glycoside, compared with ATP + DMSO), the “ATP-induced YO-PRO-1 response in fixed-concentration screen” value is given as “large increase”. The “Toxic effect on cells” value in series [1] (YO-PRO-1 uptake without ATP or without P2X7) was “toxic effect on the cells”. For the same molecule, the “YO-PRO-1 uptake in HEK-hP2X7 cells in the absence of ATP” value in series [1] (drug alone) is “could induce YO-PRO-1 uptake”. The “YO-PRO-1 uptake in nontransfected HEK-293 cells (no P2X7)” value in series [2] is “could induce YO-PRO-1 uptake”.
Consider `CC(C)=CCC[C@](C)(O)[C@H]1CC[C@]2(C)[C@@H]1[C@H](O)C[C@@H]1[C@@]3(C)CC[C@H](O[C@@H]4O[C@H](CO)[C@@H](O)[C@H](O)[C@H]4O)C(C)(C)[C@@H]3CC[C@]12C` [ginsenoside-Rh2], for which the “PAM activity at human P2X7” value in series [3] is “able to potentiate hP2X7 responses”.
On to `Cl.Cl.O=C(CC12CC3CC(CC(C3)C1)C2)Nc1cccc2nc(NCCNCCO)ccc12` [AZ10606120, reference compound], for which the “Antagonist effect on loss of viability by ATP + ginsenoside-F2 or 20(S)-Rg3” value in series [4] (AZ10606120 pretreatment) is listed as “prevented”. In series [5], the “Antagonist effect on ATP-induced loss of viability” value is listed as “lack of effect”.
For `Nc1ncnc2c1ncn2[C@@H]1O[C@H](COP(=O)(O)OP(=O)(O)OP(=O)(O)O)[C@@H](O)[C@H]1O` [ATP, reference compound], the pEC50 in series [1] (average, n = 5 experiments, HEK-hP2X7, read-out: EC50 for ATP + vehicle (DMSO)) was 3.66. For the same molecule, in series [5] (24 hours), the “Cell viability after ATP” value is reported as 73.3% ± 14.4%.
As for `CC(C)=CCCC(C)(OC1OC(CO)C(O)C(O)C1O)C1CCC2(C)C1C(O)CC1C3(C)CCC(O)C(C)(C)C3CCC12C` (stereo not shown) [Ginsenoside-CK], in series [1], the “Effect of AZ10606120 pretreatment on response to ATP + glycoside (P2X7 dependence)” value is listed as “abolished”. The “PAM effect on ATP dose-response curve” value in series [1] (10 µM glycoside, HEK-hP2X7) was “mixed type I/II effects”. The “Maximum response (fold increase)” value in series [1] (maximum response defined at 1 mM ATP, 10 µM glycoside) is recorded as 2.4–4.4 fold. Besides, the “Effect on ATP-induced calcium response” value in series [6] is “increased the peak response and the sustained elevation in [Ca^2+]i”. Also, the “Cell viability in combination with ATP” value in series [4] is given as “very effective at enhancing cell death”. In addition, in series [5] (24 hours), the “Enhancement of ATP-induced cell death” value is on record as “could significantly enhance this ATP-induced cell death”. In series [3], the “PAM activity at human P2X7” value is “highest activity”.
Regarding `CC(C)=CCC[C@](C)(O)[C@H]1CC[C@]2(C)[C@@H]1[C@H](O)C[C@@H]1[C@@]3(C)CC[C@H](O)C(C)(C)[C@@H]3CC[C@]12C` [PPD, protopanaxadiol], in series [1] (10 µM glycoside, HEK-hP2X7), the “PAM effect on ATP dose-response curve” value is recorded as “no effect on the ATP dose-response curve”. Further, the “PAM activity at human P2X7” value in series [3] is listed as “no activity”.

What is called pEC50 is the negative decadic logarithm of the EC50, by convention in mol/L.
